Earlier results in patent publication US20120077872A1, “PRESERVATIVE-FREE PHARMACEUTICAL TETRAHYDROLIPSTATIN COMPOSITIONS” (EMS S.A., priority 2009, published 2012).

Settings: stored at dry atmosphere

CCCCCCCCCCC[C@@H](C[C@@H]1OC(=O)[C@H]1CCCCCC)OC(=O)[C@H](CC(C)C)NC=O [THL, N-Formyl-L-leucine (1S)-1-[[(2S,3S)-3-hexyl-4-oxo-2-oxetanyl]methyl]dodecyl ester]
temperature at which degradation starts: around 40 °C
